Values belong to the compound of their own block, whether it stands above or below them.
Assays:
[1] = molecular target: Indoleamine 2,3-dioxygenase 1 (Homo sapiens, UniProt P14902); assay: Inhibition of human N-terminal His-tagged IDO1 expressed in Escherichia coli assessed as formation of N'-formyl-kynurenine using D-tryptophan as a substrate by methylene blue based assay
[2] = molecular target: Tryptophan 2,3-dioxygenase (Homo sapiens) (UniProt P48775); assay: Inhibition of human N-terminal His-tagged TDO expressed in Escherichia coli assessed as formation of N'-formyl-kynurenine at 1 uM using D-tryptophan as a substrate by methylene blue based assay relative to control
Chain of Tryptophan 2,3-dioxygenase (Homo sapiens) (P48775 whole entry, looked up): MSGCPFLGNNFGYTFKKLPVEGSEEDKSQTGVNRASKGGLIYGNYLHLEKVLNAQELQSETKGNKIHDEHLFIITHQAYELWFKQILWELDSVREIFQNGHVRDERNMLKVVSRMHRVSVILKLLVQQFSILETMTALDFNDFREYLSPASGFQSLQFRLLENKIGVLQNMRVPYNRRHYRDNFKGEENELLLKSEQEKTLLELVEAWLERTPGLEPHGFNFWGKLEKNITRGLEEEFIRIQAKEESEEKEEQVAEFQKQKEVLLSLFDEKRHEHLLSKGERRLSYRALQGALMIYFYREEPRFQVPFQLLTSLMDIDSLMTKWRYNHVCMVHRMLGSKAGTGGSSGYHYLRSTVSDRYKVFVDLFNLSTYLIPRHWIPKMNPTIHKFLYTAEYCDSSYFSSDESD

HepG2 = assay: Cytotoxicity against human HepG2 cells assessed as reduction in cell viability measured after 72 hrs by MTT assay; format: cell-based; details: HepG2, 72 h
U-87 MG = assay: Cytotoxicity against human U87 cells assessed as reduction in cell viability measured after 72 hrs by MTT assay; format: cell-based, U-87MG ATCC
HGC-27 = assay: Cytotoxicity against human HGC-27 cells assessed as reduction in cell viability measured after 72 hrs by MTT assay; format: cell-based; details: HGC-27, 72 h
HCT-116 = assay: Cytotoxicity against human HCT-116 cells assessed as reduction in cell viability measured after 72 hrs by MTT assay; format: cell-based; details: HCT-116, 72 h
MCF7 = assay: Cytotoxicity against human MCF7 cells assessed as reduction in cell viability measured after 72 hrs by MTT assay; format: cell-based; details: MCF7, 72 h

Chain of Indoleamine 2,3-dioxygenase 1 (P14902 whole entry): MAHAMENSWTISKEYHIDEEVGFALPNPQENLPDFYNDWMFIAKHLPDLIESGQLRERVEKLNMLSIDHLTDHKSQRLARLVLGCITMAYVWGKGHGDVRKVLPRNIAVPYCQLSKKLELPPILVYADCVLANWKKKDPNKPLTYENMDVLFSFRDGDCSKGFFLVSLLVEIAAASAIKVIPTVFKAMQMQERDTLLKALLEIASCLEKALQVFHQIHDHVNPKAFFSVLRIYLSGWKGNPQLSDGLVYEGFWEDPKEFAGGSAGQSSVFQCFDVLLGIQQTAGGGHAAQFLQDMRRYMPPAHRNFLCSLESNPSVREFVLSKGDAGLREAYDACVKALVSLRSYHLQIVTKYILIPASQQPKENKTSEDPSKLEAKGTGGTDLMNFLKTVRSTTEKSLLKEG

Structure (SMILES): COc1ccc(C)c2c1CC1(C(=O)N(C)C(=O)N1C)C1=C2C(=O)c2[nH]cc(CCNC(=O)c3ccc4ccccc4n3)c2C1=O (stereo not given)
IC50 [1]: > 42000 nM

Structure (SMILES): COc1ccc(C)c2c1CC1(C(=O)N(C)C(=O)N1C)C1=C2C(=O)c2[nH]cc(CCNC(=O)c3cc4ccccc4s3)c2C1=O (stereo not given)
IC50 [1]: > 42000 nM

Structure (SMILES): COc1ccc(C)c2c1CC1(C(=O)N(C)C(=O)N1C)C1=C2C(=O)c2[nH]cc(CCNC(=O)c3cc4ccccc4[nH]3)c2C1=O (stereo not given)
IC50 [1]: > 42000 nM

Structure (SMILES): COc1ccc(C)c2c1CC1(C(=O)N(C)C(=O)N1C)C1=C2C(=O)c2[nH]cc(CCNC(=O)c3ccc(C(C)C)cc3)c2C1=O (stereo not given)
IC50 [1]: > 42000 nM

Structure (SMILES): COc1ccc(C)c2c1CC1(C(=O)N(C)C(=O)N1C)C1=C2C(=O)c2[nH]cc(CCNC(=O)c3ccccc3Br)c2C1=O (stereo not given)
IC50 [1]: 250 nM

Structure (SMILES): COc1ccc(C)c2c1CC1(C(=O)N(C)C(=O)N1C)C1=C2C(=O)c2[nH]cc(CCNC(=O)/C=C/c3ccccc3)c2C1=O (stereo not given)
IC50 [1]: 578 nM

Structure (SMILES): COc1ccc(C)c2c1CC1(C(=O)N(C)C(=O)N1C)C1=C2C(=O)c2[nH]cc(CCNC(=O)c3cccc(C(F)(F)F)c3)c2C1=O (stereo not given)
IC50 [1]: > 42000 nM

Structure (SMILES): COc1ccc(C)c2c1CC1(C(=O)N(C)C(=O)N1C)C1=C2C(=O)c2[nH]cc(CCNC(=O)/C=C/c3cccc(C(F)(F)F)c3)c2C1=O (stereo not given)
IC50 [1]: > 42000 nM

Structure (SMILES): COc1ccc(C)c2c1CC1(C(=O)N(C)C(=O)N1C)C1=C2C(=O)c2[nH]cc(CCNC(=O)OC(C)(C)C)c2C1=O (stereo not given)
IC50 [1]: 467 nM

Structure (SMILES): COc1ccc(C)c2c1CC1(C(=O)N(C)C(=O)N1C)C1=C2C(=O)c2[nH]cc(CCNC(=O)c3cc(OC)c(OC)c(OC)c3)c2C1=O (stereo not given)
IC50 [1]: > 42000 nM

Structure (SMILES): COc1ccc(C)c2c1CC1(C(=O)N(C)C(=O)N1C)C1=C2C(=O)c2[nH]cc(CCNC(=O)Cc3cccc(C(F)(F)F)c3)c2C1=O (stereo not given)
IC50 [1]: 441 nM

Structure (SMILES): COc1ccc(C)c2c1CC1(C(=O)N(C)C(=O)N1C)C1=C2C(=O)c2[nH]cc(CCNC(=O)c3ccc(Cl)cc3)c2C1=O (stereo not given)
IC50 [1]: > 42000 nM

Structure (SMILES): COc1ccc(C(=O)NCCc2c[nH]c3c2C(=O)C2=C(C3=O)c3c(C)ccc(OC)c3CC23C(=O)N(C)C(=O)N3C)cc1 (stereo not given)
IC50 [1]: 2500 nM

Structure (SMILES): COc1ccc(C)c2c1CC1(C(=O)N(C)C(=O)N1C)C1=C2C(=O)c2[nH]cc(CCNC(=O)c3ccc4ccccc4c3)c2C1=O (stereo not given)
IC50 [1]: > 42000 nM

Structure (SMILES): COc1cc(/C=C/C(=O)NCCc2c[nH]c3c2C(=O)C2=C(C3=O)c3c(C)ccc(OC)c3CC23C(=O)N(C)C(=O)N3C)cc(OC)c1 (stereo not given)
IC50 [1]: > 42000 nM

Structure (SMILES): COc1ccc(C)c2c1CC1(C(=O)N(C)C(=O)N1C)C1=C2C(=O)c2[nH]cc(CCNC(=O)c3ccccn3)c2C1=O (stereo not given)
IC50 [1]: 430 nM

Structure (SMILES): COc1ccc(C)c2c1CC1(C(=O)N(C)C(=O)N1C)C1=C2C(=O)c2[nH]cc(CCNC(=O)c3ccccc3)c2C1=O (stereo not given)
IC50 [1]: 210 nM | inhibition [2]: 0% | IC50 (HepG2): 3530 nM | IC50 (U-87 MG): 2740 nM | IC50 (HGC-27): 4000 nM | IC50 (HCT-116): 1700 nM | IC50 (MCF7): 5350 nM

Structure (SMILES): NS(=O)(=O)NCCNc1nonc1/C(=N/O)Nc1ccc(F)c(Br)c1 [EPACADOSTAT]
IC50 (HepG2): > 50000 nM | IC50 (U-87 MG): > 50000 nM | IC50 (HGC-27): > 50000 nM | IC50 (HCT-116): > 50000 nM | IC50 (MCF7): > 50000 nM

More lines, main results first:

IC50 [1]: 101 nM | inhibition [2]: 0%
Structure (SMILES): COc1ccc(C)c2c1CC1(C(=O)N(C)C(=O)N1C)C1=C2C(=O)c2[nH]cc(CCN(C)C)c2C1=O (stereo not given)
IC50 (HepG2): > 50000 nM | IC50 (U-87 MG): > 50000 nM | IC50 (HGC-27): > 50000 nM | IC50 (HCT-116): > 50000 nM | IC50 (MCF7): > 50000 nM

IC50 [1]: 242 nM
Structure (SMILES): COc1ccc(C)c2c1CC1(C(=O)N(C)C(=O)N1C)C1=C2C(=O)c2[nH]cc(CCNCc3ccccc3C)c2C1=O (stereo not given)

IC50 [1]: 181 nM
Structure (SMILES): COc1ccc(C)c2c1CC1(C(=O)N(C)C(=O)N1C)C1=C2C(=O)c2[nH]cc(CCNCc3cc(OC)c(OC)c(OC)c3)c2C1=O (stereo not given)

IC50 [1]: 65.3 nM | inhibition [2]: 0%
Structure (SMILES): COc1ccc(C)c2c1CC1(C(=O)N(C)C(=O)N1C)C1=C2C(=O)c2[nH]cc(CCNCc3ccccc3Br)c2C1=O (stereo not given)
IC50 (HepG2): 1560 nM | IC50 (U-87 MG): 1220 nM | IC50 (HGC-27): 2080 nM | IC50 (HCT-116): 1350 nM | IC50 (MCF7): 1520 nM

IC50 [1]: 370 nM
Structure (SMILES): COc1ccc(C)c2c1CC1(C(=O)N(C)C(=O)N1C)C1=C2C(=O)c2[nH]cc(CCNCc3cccs3)c2C1=O (stereo not given)

IC50 [1]: 631 nM
Structure (SMILES): COc1ccc(C)c2c1CC1(C(=O)N(C)C(=O)N1C)C1=C2C(=O)c2[nH]cc(CCNC(=O)c3cc4ccccc4o3)c2C1=O (stereo not given)

IC50 [1]: 252 nM
Structure (SMILES): COC(=O)c1cccc(CNCCc2c[nH]c3c2C(=O)C2=C(C3=O)c3c(C)ccc(OC)c3CC23C(=O)N(C)C(=O)N3C)c1 (stereo not given)

IC50 [1]: 161 nM
Structure (SMILES): COc1ccc(C)c2c1CC1(C(=O)N(C)C(=O)N1C)C1=C2C(=O)c2[nH]cc(CCNCc3ccc(C(F)(F)F)cc3)c2C1=O (stereo not given)

IC50 [1]: 79.3 nM | inhibition [2]: 0%
Structure (SMILES): COc1ccc(C)c2c1CC1(C(=O)N(C)C(=O)N1C)C1=C2C(=O)c2[nH]cc(CCNCC(C)(C)C)c2C1=O (stereo not given)
IC50 (HepG2): > 50000 nM | IC50 (U-87 MG): > 50000 nM | IC50 (HGC-27): > 50000 nM | IC50 (HCT-116): > 50000 nM | IC50 (MCF7): > 50000 nM

IC50 [1]: 173 nM
Structure (SMILES): COc1ccc(C)c2c1CC1(C(=O)N(C)C(=O)N1C)C1=C2C(=O)c2[nH]cc(CCNCc3ccccc3)c2C1=O (stereo not given)

IC50 [1]: 234 nM
Structure (SMILES): COc1ccc(C)c2c1CC1(C(=O)N(C)C(=O)N1C)C1=C2C(=O)c2[nH]cc(CCNCc3ccc(C)c(C)c3)c2C1=O (stereo not given)

IC50 [1]: 209 nM | inhibition [2]: 0%
Structure (SMILES): COc1ccc(C)c2c1CC1(C(=O)N(C)C(=O)N1C)C1=C2C(=O)c2[nH]cc(CCNC(=O)c3ccco3)c2C1=O (stereo not given)
IC50 (HepG2): 4180 nM | IC50 (U-87 MG): 2590 nM | IC50 (HGC-27): 3160 nM | IC50 (HCT-116): 2150 nM | IC50 (MCF7): 6910 nM

IC50 [1]: 159 nM
Structure (SMILES): COc1ccc(C)c2c1CC1(C(=O)N(C)C(=O)N1C)C1=C2C(=O)c2[nH]cc(CCNCCc3ccccc3)c2C1=O (stereo not given)

IC50 [1]: 265 nM
Structure (SMILES): COc1ccc(C)c2c1CC1(C(=O)N(C)C(=O)N1C)C1=C2C(=O)c2[nH]cc(CCNCc3ccc(C(C)(C)C)cc3)c2C1=O (stereo not given)

IC50 [1]: 954 nM
Structure (SMILES): COc1ccc(C)c2c1CC1(C(=O)N(C)C(=O)N1C)C1=C2C(=O)c2[nH]cc(CCNCc3ccc(-c4ccccc4)cc3)c2C1=O (stereo not given)

IC50 [1]: 271 nM
Structure (SMILES): COc1ccc(C)c2c1CC1(C(=O)N(C)C(=O)N1C)C1=C2C(=O)c2[nH]cc(CCNCc3ccc4ccccc4c3)c2C1=O (stereo not given)

IC50 [1]: 621 nM
Structure (SMILES): COc1ccc(C)c2c1CC1(C(=O)N(C)C(=O)N1C)C1=C2C(=O)c2[nH]cc(CCNCc3cc4ccccc4s3)c2C1=O (stereo not given)

IC50 [1]: 248 nM
Structure (SMILES): COc1ccc(C)c2c1CC1(C(=O)N(C)C(=O)N1C)C1=C2C(=O)c2[nH]cc(CCNCc3cccc(OC)c3OC)c2C1=O (stereo not given)

IC50 [1]: 330 nM
Structure (SMILES): COc1ccc(CC(=O)NCCc2c[nH]c3c2C(=O)C2=C(C3=O)c3c(C)ccc(OC)c3CC23C(=O)N(C)C(=O)N3C)cc1 (stereo not given)

IC50 [1]: 213 nM
Structure (SMILES): COc1ccc(C)c2c1CC1(C(=O)N(C)C(=O)N1C)C1=C2C(=O)c2[nH]cc(CCNCc3cc(F)cc(F)c3)c2C1=O (stereo not given)

IC50 [1]: 150 nM | inhibition [2]: 0%
Structure (SMILES): COc1ccc(C)c2c1CC1(C(=O)N(C)C(=O)N1C)C1=C2C(=O)c2[nH]cc(CCNCc3cccc(Cl)c3)c2C1=O (stereo not given)
IC50 (HepG2): > 50000 nM | IC50 (U-87 MG): > 50000 nM | IC50 (HGC-27): > 50000 nM | IC50 (HCT-116): > 50000 nM | IC50 (MCF7): > 50000 nM

IC50 [1]: 220 nM
Structure (SMILES): COc1ccc(C)c2c1CC1(C(=O)N(C)C(=O)N1C)C1=C2C(=O)c2[nH]cc(CCNC(=O)c3cccs3)c2C1=O (stereo not given)

Source: ChEMBL document CHEMBL4831485, “Design, synthesis and biological evaluation of exiguamine A analogues as IDO1 inhibitors” (Eur J Med Chem, 2021)
